One may read the DC50 as the concentration giving 50% degradation.

The text below walks through data of patent US20260125400A1, “TYK2 DEGRADERS AND USES THEREOF” (Kymera Therapeutics, Inc., priority 2023, published 2026).

Each structure is given as a SMILES string. Where two headings read alike, the source gives them in different places. Where only a bound is given, the exact number is not on record here.

This test concerns the target T1, TYK2 (Homo sapiens, UniProt P29597).
T1 construct: Degradation of TYK2 in cells was quantitatively measured using Meso Scale Discovery (MSD) technology; endogenous in cells; host or cells: OCI-LY10
The experiment in a line: TYK2 MSD degradation in OCI-LY10 cells. Format: cell-based. The settings on record: 4 to 24 hours incubation; for DC50: read-out: TYK2 MSD OCI-LY10 Rel-DC50. The protocol:
Example 7. TYK2 MSD Degradation
Degradation of TYK2 in cells was quantitatively measured using Meso Scale Discovery (MSD) technology. OCI-LY10 cells were seeded in 96-well plates with a density of 0.4 million cells per well in 100 μl fresh media. Compounds were then added to the assay plates with a final top concentration of 1 to 10 μM in a 1:3 dilution series with total of 9 doses. The assay plates were then incubated for 4 to 24 hours at 37° C. under […]. The assay plates were then centrifuged for 5 minutes, and the cell pellets were treated with 100 μl/well RIPA lysis buffer (Boston Bioproducts, BP-115D) with protease and phosphatase inhibitors (Roche, 05892791001 and 04906837001). To prepare MSD assay plates (MSD, L15XA), the plates were coated with the capture antibody (Santa Cruz Biotechnology, SC-5271) in PBS, at 40 μl/well. The plates were then incubated overnight at 4° C., washed 3 times with 150 μl/well TBST buffer (Cell Signaling Technology, 9997S) and blocked with 150 μl/well blocking buffer (MSD, R93BA-4). Cell lysates were then added to MSD assay plates and the plates were incubated at room temperature for 1 hour. The plates were then washed 3 times with 150 μl/well TBST buffer and 25 μl/well primary detection antibody (Cell Signaling Technology, #9312). The assay plates were then incubated at room temperature for 1 hour, washed 3 times with 150 μl/well TBST buffer, and 25 μl/well secondary detection antibody, SULFO-TAG anti-rabbit antibody (MSD, R32AB-1) were added. The assay plates were then incubated at room temperature for 1 hour, washed 3 times with 150 μl/well TB ST buffer, and 150 μl/well MSD reading buffer (MSD, R92TC-2) were added. The plates were then analyzed by an MSD reader. The data was analyzed by GraphPad Prism and the dose dependent TYK2 degradation was fit using the four-parameter inhibitor vs. response nonlinear regression.
The letter codes for TYK2 DC50 include: A (<1 nM); B (i to <10 nM); C (10 to 100 nM); D (>100 nM); and E (not tested). The letter codes for TYK2 Dmax % include: A (>90%); B (90 to >75%); C (75 to 50%); D (<50%); and E (not tested).

Setting [1] is: TYK2 degradation in OCI-LY10 cells.

T1 sequence (P29597 whole entry): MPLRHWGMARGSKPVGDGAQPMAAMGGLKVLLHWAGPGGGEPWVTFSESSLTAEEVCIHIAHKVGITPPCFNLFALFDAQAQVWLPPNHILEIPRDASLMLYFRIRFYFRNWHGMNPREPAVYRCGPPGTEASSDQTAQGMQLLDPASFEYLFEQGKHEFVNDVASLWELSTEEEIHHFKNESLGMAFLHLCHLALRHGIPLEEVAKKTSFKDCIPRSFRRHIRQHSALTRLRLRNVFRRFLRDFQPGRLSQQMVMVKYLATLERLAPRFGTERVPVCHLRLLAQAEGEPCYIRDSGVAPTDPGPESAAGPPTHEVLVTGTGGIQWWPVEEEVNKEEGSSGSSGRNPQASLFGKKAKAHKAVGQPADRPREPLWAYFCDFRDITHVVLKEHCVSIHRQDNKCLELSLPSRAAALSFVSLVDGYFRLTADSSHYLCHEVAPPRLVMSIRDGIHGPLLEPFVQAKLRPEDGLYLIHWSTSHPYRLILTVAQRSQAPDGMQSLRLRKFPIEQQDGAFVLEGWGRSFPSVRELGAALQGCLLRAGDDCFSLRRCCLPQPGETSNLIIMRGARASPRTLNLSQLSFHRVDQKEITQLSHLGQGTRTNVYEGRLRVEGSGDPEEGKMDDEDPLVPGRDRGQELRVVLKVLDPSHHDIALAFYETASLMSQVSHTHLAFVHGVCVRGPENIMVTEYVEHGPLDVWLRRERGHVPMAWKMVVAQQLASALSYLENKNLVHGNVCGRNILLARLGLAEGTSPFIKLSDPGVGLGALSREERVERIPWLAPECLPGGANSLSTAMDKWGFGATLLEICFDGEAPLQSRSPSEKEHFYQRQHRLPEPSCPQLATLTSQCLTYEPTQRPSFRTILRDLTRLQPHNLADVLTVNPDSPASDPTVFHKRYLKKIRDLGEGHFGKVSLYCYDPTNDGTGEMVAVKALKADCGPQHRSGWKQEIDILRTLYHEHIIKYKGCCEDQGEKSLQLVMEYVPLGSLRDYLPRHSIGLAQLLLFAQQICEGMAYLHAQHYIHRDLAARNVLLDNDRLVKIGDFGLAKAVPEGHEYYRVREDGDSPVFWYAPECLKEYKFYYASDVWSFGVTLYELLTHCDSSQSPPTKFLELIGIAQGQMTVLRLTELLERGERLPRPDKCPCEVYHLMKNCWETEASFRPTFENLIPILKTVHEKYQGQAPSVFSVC

In the case of `CNc1cc(N2CCc3c(-c4ccc(CN5CCN(CCC6CCN(c7ccc(Cl)c(C8CCC(=O)NC8=O)c7)CC6)CC5)cn4)cccc32)nn2c(C(=O)NC3CC3F)cnc12` (mixture of isomers) [I-438], where the note is “OCI-LY10 cells”, the “TYK2 MSD OCI-LY10 Dmax %” value is listed as “C (C (75 to 50%))” and the DC50 is less than 10 nM.
`CNc1cc(N2CCc3c(-c4ccc(N5CCN(CC6CCN(c7ccc(Cl)c(C8CCC(=O)NC8=O)c7)CC6)CC5)cn4)cccc32)nn2c(C(=O)NC3CC3F)cnc12` (mixture of isomers) [I-442]: for the setting “OCI-LY10 cells”, the “TYK2 MSD OCI-LY10 Dmax %” value was “C (C (75 to 50%))” and the DC50 is less than 10 nM.
On the same counts, the results for `CNc1cc(N2CCc3c(-c4ccc(N5CC6(CCN(Cc7ccc(C8CCC(=O)NC8=O)c(Cl)c7)CC6)C5)cn4)cccc32)nn2c(C(=O)NC3CC3F)cnc12` (mixture of isomers) [I-445] are “B (B (90 to >75%))” and less than 10 nM.
`CNc1cc(N2CCc3c(-c4ccc(N5CCC6(CC5)CN(C(=O)c5ccc(C7CCC(=O)NC7=O)c(Cl)c5)C6)cn4)cccc32)nn2c(C(=O)NC3CC3F)cnc12` (mixture of isomers) [I-447]: where the note is “OCI-LY10 cells”, the “TYK2 MSD OCI-LY10 Dmax %” value is reported as “C (C (75 to 50%))” and the 50% degradation concentration (DC50) is less than 10 nM.
On to `CNc1cc(N2CCc3c(-c4ccc(CN5CCC(N6CCN(c7ccc8c(c7)n(C)c(=O)n8C7CCC(=O)NC7=O)CC6)CC5)cn4)cccc32)nn2c(C(=O)N[C@@H]3C[C@@H]3F)cnc12` (some centres unmarked) [I-1], for which, under setting [1], the “TYK2 MSD OCI-LY10 Dmax %” value was “B (B (90 to >75%))” and the DC50 is less than 1 nM.
For the compound `CNc1cc(N2CCc3c(-c4cc(CN5CCC(c6ccc7c(c6)n(C)c(=O)n7C6CCC(=O)NC6=O)C(F)(F)C5)ccn4)cccc32)nn2c(C(=O)NC3CC3)cnc12` (centres unmarked) [I-4], under setting [1], the “TYK2 MSD OCI-LY10 Dmax %” value was “D (D (<50%))” and the 50% degradation concentration (DC50) was greater than 100 nM.
On the same counts, the results for `CNc1cc(N2CCc3c(N4CCC(CN5CCC(N6CCN(c7ccc8c(c7)n(C)c(=O)n8C7CCC(=O)NC7=O)CC6)C(F)(F)C5)CC4)cccc32)nn2c(C(=O)NC3CC3)cnc12` (centres unmarked) [I-5] are “C (C (75 to 50%))” and less than 10 nM.
Consider `CNc1cc(N2CCc3c(N4CC(CN5CCC(N6CCN(c7ccc8c(c7)n(C)c(=O)n8C7CCC(=O)NC7=O)CC6)C(F)(F)C5)C4)cccc32)nn2c(C(=O)NC3CC3)cnc12` (centres unmarked) [I-12], for which, under setting [1], the “TYK2 MSD OCI-LY10 Dmax %” value is recorded as “C (C (75 to 50%))” and the DC50 is less than 1 nM.
On the same counts, the results for `CNc1cc(N2CCc3c(CN4CCC(N5CCN(c6ccc7c(c6)n(C)c(=O)n7C6CCC(=O)NC6=O)CC5)C(F)(F)C4)cccc32)nn2c(C(=O)NC3CC3)cnc12` (centres unmarked) [I-15] are “C (C (75 to 50%))” and less than 1 nM.
On the same counts, the results for `CNc1cc(N2CCc3c(CN4CCC(N5CCC6(CCN(c7ccc8c(c7)n(C)c(=O)n8C7CCC(=O)NC7=O)CC6)CC5)C(F)(F)C4)cccc32)nn2c(C(=O)NC3CC3)cnc12` (centres unmarked) [I-19] are “B (B (90 to >75%))” and less than 10 nM.
For `CNc1cc(N2CCc3c(-c4cc(CN5CCC6(CC5)CN(c5ccc7c(c5)n(C)c(=O)n7C5CCC(=O)NC5=O)C6)ccn4)cccc32)nn2c(C(=O)NC3CC3)cnc12` (centres unmarked) [I-21] the same measures were “D (D (<50%))” and less than 10 nM.
As for `CNc1cc(N2CC3(CCN(C4CCN(c5cccc6c5n(C)c(=O)n6C5CCC(=O)NC5=O)CC4)CC3)c3ccccc32)nn2c(C(=O)NC3CC3)cnc12` (centres unmarked) [I-23], under setting [1], the “TYK2 MSD OCI-LY10 Dmax %” value is listed as “D (D (<50%))” and the DC50 was greater than 100 nM.
On the same counts, the results for `CNc1cc(N2CC3(CCN(CC4CCN(c5ccc6c(c5)n(C)c(=O)n6C5CCC(=O)NC5=O)CC4)CC3)c3ccccc32)nn2c(C(=O)NC3CC3)cnc12` (centres unmarked) [I-24] are “D (D (<50%))” and greater than 100 nM.
On the same counts, the results for `CNc1cc(N2CC3(CCN(CC4CCN(c5cccc6c5n(C)c(=O)n6C5CCC(=O)NC5=O)CC4)CC3)c3ccccc32)nn2c(C(=O)NC3CC3)cnc12` (centres unmarked) [I-25] are “D (D (<50%))” and greater than 100 nM.
On the same counts, the results for `CNc1cc(N2CCc3c(-c4ccc(CN5CC6(CCN(C(=O)c7ccc(Cl)c(N8CCC(=O)NC8=O)c7)CC6(F)F)C5)cn4)cccc32)nn2c(C(=O)NC3CC3)cnc12` [I-29] are “B (B (90 to >75%))” and less than 10 nM.
Consider `CNc1cc(N2CCc3c(N4CCN(C5CCC6(CC5)CCN(c5ccc7c(c5)n(C)c(=O)n7C5CCC(=O)NC5=O)CC6)CC4)cccc32)nn2c(C(=O)NC3CC3)cnc12` (centres unmarked) [I-31], for which, under setting [1], the “TYK2 MSD OCI-LY10 Dmax %” value is “D (D (<50%))” and the DC50 was less than 10 nM.
For `CNc1cc(N2CCc3c(N4CCN(CC5CC6(CCN(C(=O)c7ccc(Cl)c(N8CCC(=O)NC8=O)c7)CC6)C5)CC4)cccc32)nn2c(C(=O)NC3CC3)cnc12` [I-32] the same measures were “C (C (75 to 50%))” and less than 10 nM.
On the same counts, the results for `CNc1cc(N2CC3(CCN(Cc4ccc5c(c4)n(C)c(=O)n5C4CCC(=O)NC4=O)CC3)c3ccccc32)nn2c(C(=O)NC3CC3)cnc12` (centres unmarked) [I-34] are “D (D (<50%))” and greater than 100 nM.
In the case of `CNc1cc(N2CCc3c(N4CCN(CC5CCC6(CC5)CCN(c5ccc7c(c5)n(C)c(=O)n7C5CCC(=O)NC5=O)CC6)CC4)cccc32)nn2c(C(=O)NC3CC3)cnc12` (centres unmarked) [I-39], under setting [1], the “TYK2 MSD OCI-LY10 Dmax %” value is reported as “D (D (<50%))” and the 50% degradation concentration (DC50) is less than 10 nM.
On the same counts, the results for `CNc1cc(N2CCc3c(N4CCN(CCC5CCN(c6ccc7c(c6)n(C)c(=O)n7C6CCC(=O)NC6=O)CC5)CC4)cccc32)nn2c(C(=O)NC3CC3)cnc12` (centres unmarked) [I-40] are “D (D (<50%))” and greater than 100 nM.
For the compound `CNc1cc(N2CC3(CCN(CCc4cccc5c4n(C)c(=O)n5C4CCC(=O)NC4=O)CC3)c3ccccc32)nn2c(C(=O)NC3CC3)cnc12` (centres unmarked) [I-41], under setting [1], the “TYK2 MSD OCI-LY10 Dmax %” value was “D (D (<50%))” and the DC50 is greater than 100 nM.
On the same counts, the results for `CNc1cc(N2CC3(CCN(c4ccc5c(c4)n(C)c(=O)n5C4CCC(=O)NC4=O)CC3)c3ccccc32)nn2c(C(=O)NC3CC3)cnc12` (centres unmarked) [I-42] are “D (D (<50%))” and greater than 100 nM.
`CNc1cc(N2CCc3c(C4CCCN(CC5CN(c6ccc7c(c6)n(C)c(=O)n7C6CCC(=O)NC6=O)C5)C4)cccc32)nn2c(C(=O)NC3CC3)cnc12` (centres unmarked) [I-45]: under setting [1], the “TYK2 MSD OCI-LY10 Dmax %” value was “C (C (75 to 50%))” and the 50% degradation concentration (DC50) is less than 1 nM.
On the same counts, the results for `CNc1cc(N2CCc3c(-c4ccc(CN5CCC(N6CCC7(CC6)CN(c6ccc8c(c6)n(C)c(=O)n8C6CCC(=O)NC6=O)C7)C(F)(F)C5)cn4)cccc32)nn2c(C(=O)NC3CC3)cnc12` (centres unmarked) [I-47] are “B (B (90 to >75%))” and less than 10 nM.
For `CNc1cc(N2CC3(CCN(c4cccc5c4n(C)c(=O)n5C4CCC(=O)NC4=O)CC3)c3ccccc32)nn2c(C(=O)NC3CC3)cnc12` (centres unmarked) [I-51] the same measures were “D (D (<50%))” and greater than 100 nM.
In the case of `CNc1cc(N2CC3(CCN(Cc4cccc5c4n(C)c(=O)n5C4CCC(=O)NC4=O)CC3)c3ccccc32)nn2c(C(=O)NC3CC3)cnc12` (centres unmarked) [I-52], under setting [1], the “TYK2 MSD OCI-LY10 Dmax %” value is listed as “D (D (<50%))” and the DC50 was greater than 100 nM.
For `CNc1cc(N2CC3(CCN(CCc4ccc5c(c4)n(C)c(=O)n5C4CCC(=O)NC4=O)CC3)c3ccccc32)nn2c(C(=O)NC3CC3)cnc12` (centres unmarked) [I-53], under setting [1], the “TYK2 MSD OCI-LY10 Dmax %” value is recorded as “D (D (<50%))” and the 50% degradation concentration (DC50) was greater than 100 nM.
On the same counts, the results for `CNc1cc(N2CCc3c(-c4ccc(CN5CCC6(CC5)CCN(c5cccc7c5n(C)c(=O)n7C5CCC(=O)NC5=O)CC6)cn4)cccc32)nn2c(C(=O)NC3CC3)cnc12` (centres unmarked) [I-54] are “C (C (75 to 50%))” and less than 10 nM.
On the same counts, the results for `CNc1cc(N2CCc3c(N4CCN(CC5CCC6(CC5)CCN(C(=O)c5ccc(Cl)c(N7CCC(=O)NC7=O)c5)CC6)CC4)cccc32)nn2c(C(=O)NC3CC3)cnc12` [I-55] are “D (D (<50%))” and greater than 100 nM.
On the same counts, the results for `CNc1cc(N2CCc3c(C4CCN(CC5CCC6(CC5)CCN(C(=O)c5ccc(Cl)c(N7CCC(=O)NC7=O)c5)CC6)CC4)cccc32)nn2c(C(=O)NC3CC3)cnc12` [I-56] are “C (C (75 to 50%))” and less than 10 nM.
As for `CNc1cc(N2CCc3c(-c4ccc(CN5CCC6(CCN(C(=O)c7ccc(Cl)c(N8CCC(=O)NC8=O)c7)CC6)C(F)(F)C5)cn4)cccc32)nn2c(C(=O)NC3CC3)cnc12` [I-57], under setting [1], the “TYK2 MSD OCI-LY10 Dmax %” value is given as “B (B (90 to >75%))” and the DC50 was less than 10 nM.
